Results reported in US5070210A, “Novel ketenimines as intermediates for insecticides” (ICI Americas Inc., priority 1990, dated 1991).

Key:
Assay type in all cases: in vivo
[1] = system: Cabbage Looper [Trichoplusia ni (Hubner)]; assay: Cabbage looper insecticidal test; settings: second-instar larvae, percent in solution; 3-5 days
Method in brief: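 Squash cotyledons dipped 2-3 s in compound in 50-50 acetone-water, dried, then infested with 5 second-instar larvae and held at high humidity. Mortality scored after 3-5 days at concentrations from 0.1% downward. LC50 from dosage-mortality curves, expressed as percent compound in solution.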

[2] = system: Maize weevil [Sitophilus Zeamais (Motschulsky)]; assay: Maize weevil insecticidal test; settings: adult weevils, percent in solution; 48 hours
Method in brief: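 LC50, in percent of compound in solution, was derived from dosage-mortality curves after 48 h at about 25 °C. Ten adult weevils per container fed on four corn seeds briefly immersed in acetone:water (50:50) solutions of up to 0.01% and dried.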

[3] = system: Tobacco Budworm [Heliothis virescens (Fabricius)] eggs; assay: Tobacco budworm egg test; settings: 2-day old eggs, percent in solution
Method in brief: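 Paper-towel patches of 2-day-old eggs dipped in acetone solutions of compound (0.1% downward), held on larval rearing medium at 78° F. Mortality scored once all control eggs had hatched and larvae were feeding; LC50 from dosage-mortality curves, expressed as percent compound in solution.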

[4] = system: Housefly [Musca domestica]; assay: Housefly insecticidal test; settings: μg per 25 female flies; mortality after 48 hours
Method in brief: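 Dry-film exposure of 25 female houseflies per cage, 48 h; LC50 as μg per 25 flies.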

[5] = system: Aster Leafhopper [Macrosteles fascifrens (Stal)]; assay: Aster leafhopper insecticidal test; settings: adults/nymphs, percent in solution; 48 hours
Description: The compounds in Tables 1 and 2 above were tested for insecticidal activity using the following testing procedures. LC50 values, based on the results of these tests and calculated according to dosage-mortality curves, are expressed in Table 3.
Aster Leafhopper [Macrosteles fascifrens (Stal)]
Oat seedlings (Avena sp) were grown in a commercial potting soil in cups. When the plants were approximately 10 cm tall they were thinned to three plants per cup and dipped for 2-3 seconds in 50-50 acetone-water solutions of the test compounds. When the plants had dried, a clear plastic tube was placed over them and the bottom end pressed into the cup. Ten aster leafhopper adults/nymphs were then placed in each tube and the tops of the tubes covered with white organdy cloth. Mortality counts were made after 48 hours. Test concentrations ranged from 0.05% down to that at which 50% mortality occurred. The LC50 values are expressed below in Table 3 under the heading "LH" in terms of the percent of the test compound in the solution.

SMILES	LC50, CL [1] [%]	LC50, MW [2] [%]	LC50, TBW, E (TBW-E) [3] [%]	LC50, HF [4] [µg]	LC50, LH [5] [%]
Cc1ccc(N=C(OCc2cccc(Oc3ccccc3)c2)C(C)C)cc1 [Compound 156]	0.004	> 0.01	0.05	10	> 0.05
COc1ccc(N=C(OCc2cccc(Oc3ccccc3)c2)C(C)C)cc1 [Compound 160]	0.005	> 0.01	0.09	7	0.05
CC(C)C(=Nc1ccc(C#N)cc1)OCc1cccc(Oc2ccccc2)c1 [Compound 172]	0.002	> 0.01	0.04	5	> 0.05
c1ccc(Oc2cccc(COC(=Nc3ccc4c(c3)OCO4)C3CC3)c2)cc1 [Compound 177]	0.002	0.01	> 0.1	13	> 0.05
CCC(=Nc1ccc2c(c1)OCO2)OCc1cccc(Oc2ccccc2)c1 [Compound 178]	0.004	> 0.01	> 0.1	6	> 0.05
CC(C)C(=Nc1ccc2c(c1)OCCO2)OCc1cccc(Oc2ccccc2)c1 [Compound 179]	0.004	> 0.01	> 0.1	13	0.005
CC(C)C(=Nc1ccc(-c2ccccc2)cc1)OCc1cccc(Oc2ccccc2)c1 [Compound 186]	0.008	> 0.01	> 0.1	> 100	> 0.05
CC(C)C(=Nc1ccc(Cl)cc1)OCc1cccc(Oc2ccc(F)cc2)c1 [Compound 189]	0.00027	> 0.01	0.07	17	0.002
CC(C)C(=Nc1ccc(Cl)c(C(F)(F)F)c1)OCc1cccc(Oc2ccc(F)cc2)c1 [Compound 193]	0.00075	> 0.01	> 0.1	100	0.001
CC(C)C(=Nc1ccc(F)c(Cl)c1)OCc1cccc(Oc2ccc(F)c(F)c2)c1 [Compound 217]	0.00006	0.0084	0.015	8	> 0.05
CC(C)C(=Nc1ccc2c(c1)OCO2)OCc1cccc(Oc2ccc(Cl)cc2)c1 [Compound 240]	0.0003	> 0.01	0.04	14	> 0.05
CC(C)C(=Nc1cccc(I)c1)OCc1cccc(Oc2ccc(F)cc2)c1 [Compound 255]	0.00017	> 0.01	0.075	16	0.0005
CSc1ccc(Oc2cccc(COC(=Nc3ccc(F)c(Cl)c3)C(C)C)c2)cc1 [Compound 256]	0.007	> 0.01	0.1	> 100	> 0.05
CC(C)C(=Nc1ccc(F)cc1)OCc1cccc(Oc2ccc(Br)cc2)c1 [Compound 259]	0.0003	> 0.01	0.05	15	> 0.05
CC(C)C(=Nc1cccc([N+](=O)[O-])c1)OCc1cccc(Oc2ccc(Cl)cc2)c1 [Compound 271]	0.0004	> 0.01	0.1	27	> 0.05
CC(C)C(=Nc1ccc(F)c([N+](=O)[O-])c1)OCc1cccc(Oc2ccccc2)c1 [Compound 293]	0.0045	> 0.01	> 0.1	19	> 0.05
CC(C)(F)C(=Nc1ccc(F)c(Cl)c1)OCc1cccc(Oc2ccc(F)cc2F)c1 [Compound 315]	0.002	> 0.01	> 0.1	> 100	> 0.05
CC(C)(F)C(=Nc1ccc(F)c(Cl)c1)OCc1cc(Oc2ccc(F)cc2)ccc1F [Compound 316]	0.0015	> 0.01	> 0.1	100	> 0.05
CC(C)C(=Nc1cccc(C(C)(C)C)c1)OCc1cccc(Oc2ccc(F)cc2)c1 [Compound 350]	0.0045	> 0.01	> 0.1	> 100	> 0.05
CC(C)C(=Nc1ccc(Br)cc1F)OCc1cccc(Oc2ccc(F)cc2)c1 [Compound 351]	0.0007	> 0.01	> 0.1	26	> 0.05
CSc1ccc(N=C(OCc2ccc(F)c(Oc3ccccc3)c2)C(C)C)cc1 [Compound 353]	> 0.1	> 0.01	> 0.1	< 100	> 0.05
Cc1ccc(N=C(OCc2ccc(F)c(Oc3ccccc3)c2)C(C)C)cc1F [Compound 354]	> 0.1	0.0068	0.018	< 100	< 0.05
